These results are taken from patent US8937189B2, “Tri-substituted 2-benzhydryl-5-benzylamino-tetrahydro-pyran-4-ol and 6-benzhydryl-4-benzylamino-tetrahydro-pyran-3-ol analogues, and novel 3,6-disubstituted pyran derivatives” (Wayne State University, priority 2004, dated 2015).

The target in one series is T1, SERT (Rattus norvegicus, UniProt P31652).
T1 construct: from tissue
Description: Inhibition of [3H]5-HT uptake by SERT. Type of series: biochemical. The following applies: text summary of Table 4.

The next series addresses T2, NET (Rattus norvegicus, UniProt Q63380).
T2 construct: from tissue
Description: Inhibition of [3H]NE uptake by NET. Type of series: biochemical. The following applies: text summary of Table 4.

Another series concerns rat NET. Description: Inhibition of [3H]nisoxetine binding to NET. The following applies: Table 3; selectivity ratio of IC50 values. On the procedure: (§1) Briefly, rat striatum was the source for DAT, and cerebral cortex for SERT and NET. […] Test compounds were dissolved in dimethyl sulfoxide (DMSO) and diluted out in 10% (v/v) DMSO. […] At lease five triplicate concentrations of each test compound were studied, spaced evenly around the IC50 value. For DAT uptake assays, uptake of 50 nM [^3H]DA into rat striatal synaptosomes was measured exactly as described by us previously. Briefly, rat striatal P2 membrane fractions were incubated with test compounds for 8 min followed by the additional presence of [^3H]DA for 4 min at 25?. […] Construction of inhibition curves and dissolvement of test compounds were as described above.

Another series deals with T3, DAT (Rattus norvegicus, UniProt P23977).
T3 construct: rat striatum was the source for DAT, and cerebral cortex for SERT and NET; from tissue; host or cells: rat striatum (P2 membrane fractions / synaptosomes for uptake)
Kind of series: Inhibition of [3H]DA uptake by DAT into rat striatal synaptosomes. Type of series: biochemical. Particulars: DAT binding vs DA uptake. The procedure:
as §1

The target of the next series is T4, rat DAT (Rattus norvegicus, UniProt P23977).
T4 construct: rat striatum was the source for DAT, and cerebral cortex for SERT and NET; from tissue; host or cells: rat striatum (P2 membrane fractions / synaptosomes for uptake)
Description: Inhibition of [3H]WIN 35,428 binding to DAT. On the procedure: as §1

The next series addresses T5, rat SERT (Rattus norvegicus, UniProt P31652).
T5 construct: rat striatum was the source for DAT, and cerebral cortex for SERT and NET; from tissue; host or cells: rat cerebral cortex
Description: Inhibition of [3H]citalopram binding to SERT. The procedure: as §1

Where a name gives a salt, the structure may show the parent alone.

T1 sequence (P31652 whole entry): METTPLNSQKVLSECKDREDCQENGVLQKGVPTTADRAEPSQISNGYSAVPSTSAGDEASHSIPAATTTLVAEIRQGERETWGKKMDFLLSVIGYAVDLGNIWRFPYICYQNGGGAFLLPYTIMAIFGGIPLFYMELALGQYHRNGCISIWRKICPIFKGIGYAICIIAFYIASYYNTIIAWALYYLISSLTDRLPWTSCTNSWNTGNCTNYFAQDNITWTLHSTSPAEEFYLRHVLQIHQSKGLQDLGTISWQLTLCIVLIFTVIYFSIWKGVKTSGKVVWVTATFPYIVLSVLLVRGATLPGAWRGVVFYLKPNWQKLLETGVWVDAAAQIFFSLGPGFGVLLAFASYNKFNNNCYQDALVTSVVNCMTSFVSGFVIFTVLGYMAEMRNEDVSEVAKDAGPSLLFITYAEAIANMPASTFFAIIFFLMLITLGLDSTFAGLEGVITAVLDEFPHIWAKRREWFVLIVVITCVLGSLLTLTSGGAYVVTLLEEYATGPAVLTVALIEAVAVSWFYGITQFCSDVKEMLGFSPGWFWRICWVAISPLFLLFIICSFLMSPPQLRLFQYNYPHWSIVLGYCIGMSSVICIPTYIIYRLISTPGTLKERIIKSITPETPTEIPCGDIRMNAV
T2 sequence (Q63380 1-617): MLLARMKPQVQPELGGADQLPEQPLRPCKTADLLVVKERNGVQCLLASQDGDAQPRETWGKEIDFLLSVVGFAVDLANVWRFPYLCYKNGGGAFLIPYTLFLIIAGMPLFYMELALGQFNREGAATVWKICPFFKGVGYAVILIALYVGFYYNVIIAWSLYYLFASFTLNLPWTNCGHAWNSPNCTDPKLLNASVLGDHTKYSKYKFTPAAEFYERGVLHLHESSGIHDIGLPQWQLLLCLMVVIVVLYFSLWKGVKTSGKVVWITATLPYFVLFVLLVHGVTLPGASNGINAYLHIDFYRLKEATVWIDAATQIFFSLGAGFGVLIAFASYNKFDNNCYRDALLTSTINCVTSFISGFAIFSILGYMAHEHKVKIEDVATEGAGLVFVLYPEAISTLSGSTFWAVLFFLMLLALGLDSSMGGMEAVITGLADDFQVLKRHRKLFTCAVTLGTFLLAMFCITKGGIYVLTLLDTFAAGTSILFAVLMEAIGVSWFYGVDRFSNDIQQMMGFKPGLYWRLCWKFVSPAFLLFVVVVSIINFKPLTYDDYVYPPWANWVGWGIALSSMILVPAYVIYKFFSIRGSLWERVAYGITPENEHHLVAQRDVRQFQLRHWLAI
T4 sequence (P23977 whole entry): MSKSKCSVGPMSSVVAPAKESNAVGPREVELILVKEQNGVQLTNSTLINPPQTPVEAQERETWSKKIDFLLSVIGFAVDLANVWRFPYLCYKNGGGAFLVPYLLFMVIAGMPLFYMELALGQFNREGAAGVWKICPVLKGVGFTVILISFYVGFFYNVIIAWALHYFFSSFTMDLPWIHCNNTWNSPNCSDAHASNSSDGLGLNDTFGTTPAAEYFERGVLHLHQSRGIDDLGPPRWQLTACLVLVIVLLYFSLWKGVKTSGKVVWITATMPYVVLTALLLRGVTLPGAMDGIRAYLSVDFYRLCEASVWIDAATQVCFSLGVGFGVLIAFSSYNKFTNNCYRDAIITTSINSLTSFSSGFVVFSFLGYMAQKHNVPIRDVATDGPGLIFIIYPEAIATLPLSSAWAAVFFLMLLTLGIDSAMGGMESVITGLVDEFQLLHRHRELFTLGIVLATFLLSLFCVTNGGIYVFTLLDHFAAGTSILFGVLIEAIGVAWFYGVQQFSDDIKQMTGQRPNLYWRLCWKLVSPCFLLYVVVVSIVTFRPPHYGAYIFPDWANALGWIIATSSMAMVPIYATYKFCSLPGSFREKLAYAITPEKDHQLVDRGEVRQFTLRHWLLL
T5 sequence (P31652 whole entry): as the sequence (P31652 whole entry) above
T3 sequence (P23977 whole entry): as the sequence (P23977 whole entry) above

For `O[C@@H]1C[C@@H](C(c2ccccc2)c2ccccc2)OC[C@H]1NCc1ccc2[nH]ccc2c1` [(−)-32b, (2S,4R,5R)-2-benzhydryl-5-[(1H-indol-5-ylmethyl)-amino]-tetrahydropyran-4-ol], at SERT, the “Blockade of SERT, in words” value is “potent blockers”. The “Blockade of NET, in words” value at NET is “potent blockers”.
`Oc1ccc(CN[C@H]2CC[C@@H](C(c3ccccc3)c3ccccc3)OC2)cc1` [(−)-37a, cis-(3S,6S)-(6-benzhydryl-tetrahydropyran-3-yl)-(4-hydroxy-benzyl)-amine]: the “Blockade of SERT, in words” value at SERT is “potent blockers”. Moreover, the “Blockade of NET, in words” value at NET is reported as “potent blockers”.
As usually defined, the melting point is the temperature, or range, at which the solid turns liquid. The compound `O[C@@H]1CO[C@H](C(c2ccccc2)c2ccccc2)C[C@H]1NCc1ccccc1` (as salt: oxalate) [(−)-29h, (3S,4R,6S)-6-benzhydryl-4-benzylamino-tetrahydropyran-3-ol] gave a melting point of 259 to 260 °C.
On to `COc1cc(CN[C@@H]2CO[C@H](C(c3ccccc3)c3ccccc3)C[C@H]2O)cc(OC)c1` [(−)-29f, (2S,4R,5R)-2-benzhydryl-5-(3,5-dimethoxy-benzylamino)-tetrahydropyran-4-ol], for which the “Blockade of SERT, in words” value on SERT was “potent blockers”. The “Blockade of NET, in words” value at NET was “potent blockers”.
For `Fc1ccc(CN[C@H]2CC[C@@H](C(c3ccccc3)c3ccccc3)OC2)cc1` (relative stereo) [Compound 16b, Cis-(6-benzhydryl-tetrahydropyran-3-yl)-(4-fluoro-benzyl)-amine], in the series on rat NET, the “NET binding/DAT binding” value is 1.4.
Take `O=[N+]([O-])c1ccc(CN[C@H]2CC[C@@H](C(c3ccccc3)c3ccccc3)OC2)cc1` (relative stereo) [Compound 16d, Cis-(6-benzhydryl-tetrahydropyran-3-yl)-(4-nitro-benzyl)-amine]: the “Potency in inhibiting binding versus uptake, in words” value at DAT is “three fold higher potency in inhibiting binding than uptake”.
Consider `c1ccc(C(c2ccccc2)C2CCC(NCc3cc4ccccc4[nH]3)CO2)cc1` (stereo not drawn) [Compound 16g, Cis-(6-benzhydryl-tetrahydropyran-3-yl)-(2-indole-methyl)-amine], for which the “NET binding/DAT binding” value in the series on rat NET is 1.8. In addition, the “Fold more active at DAT compared to 16f” value on rat DAT (DAT binding, 227 vs. 794 nM) is 3.5 fold.
Consider `Ic1ccc(CN[C@H]2CC[C@@H](C(c3ccccc3)c3ccccc3)OC2)cc1` (relative stereo) [Compound 16m, Cis-(6-benzhydryl-tetrahydropyran-3-yl)-(4-iodo-benzyl)-amine], for which the “NET binding/DAT binding” value in the series with rat NET is recorded as 0.73.
By IC50 is commonly meant the concentration that gives 50% inhibition. Low values mean greater potency in that assay, high ones weaker potency in that assay. Take `c1ccc(CN[C@H]2CC[C@@H](C(c3ccccc3)c3ccccc3)NC2)cc1` [Compound 1a, reference compound]: the IC50 at rat SERT was found to be 2.13 ± 0.11 µM; on rat DAT, 0.114 µM.
The compound `COc1ccc(CN[C@H]2C[C@H](C(c3ccccc3)c3ccccc3)OC[C@H]2O)cc1` (as salt: oxalate) [(+)-29g, (3S,4S,6R)-6-benzhydryl-4-(4-methoxy-benzylamino)-tetrahydro-pyran-3-ol] showed a melting point of 235 to 237 °C.
With `c1ccc(C(c2ccccc2)[C@@H]2CC[C@H](NCc3ccc4[nH]ccc4c3)CO2)cc1` (relative stereo) [Compound 16n, Cis-(6-benzhydryl-tetrahydropyran-3-yl)-(1H-iodo-5-ylmethyl)-amine], the “NET binding/DAT binding” value in the series on rat NET is 0.09.
For the compound `Oc1ccc(CN[C@@H]2CO[C@H](C(c3ccccc3)c3ccccc3)C[C@H]2O)cc1` [(−)-32a, (2S,4R,5R)-2-benzhydryl-5-(4-hydroxy-benzylamino)-tetrahydropyran-4-ol], at NET, the “Blockade of NET, in words” value is recorded as “selective blockers for NET”.
For the compound `COc1ccc(CN[C@@H]2CO[C@H](C(c3ccccc3)c3ccccc3)C[C@H]2O)cc1` [(−)-29a, (2S,4R,5R)-2-benzhydryl-5-(4-methoxy-benzylamino)-tetrahydropyran-4-ol], at SERT, the “Blockade of SERT, in words” value was “potent blockers”. Besides, the “Blockade of NET, in words” value on NET was “potent blockers”.
Take `Oc1ccc(CN[C@H]2CO[C@@H](C(c3ccccc3)c3ccccc3)C[C@@H]2O)cc1` [(+)-32a, (2R,4S,5S)-2-benzhydryl-5-(4-hydroxy-benzylamino)-tetrahydro-pyran-4-ol]: on NET, the “Blockade of NET, in words” value was “selective blockers for NET”.
With `Clc1ccc(CN[C@H]2CC[C@@H](C(c3ccccc3)c3ccccc3)OC2)cc1Cl` (relative stereo) [Compound 16i, Cis-(6-benzhydryl-tetrahydropyran-3-yl)-(3,4-dichloro-benzyl)-amine], in the series on rat NET, the “NET binding/DAT binding” value was determined as 0.36.
Take `O[C@@H]1CO[C@@H](C(c2ccccc2)c2ccccc2)C[C@@H]1NCc1ccccc1` (as salt: oxalate) [(+)-29h, (3S,4S,6R)-6-benzhydryl-4-benzylamino-tetrahydropyran-3-ol]: the melting point was in the range of 259 to 260 °C.
As for `Fc1ccc(CN[C@H]2CCO[C@@H](C(c3ccccc3)c3ccccc3)C2)cc1` (relative stereo) [Compound 7a, cis-(2-benzhydryl-tetrahydropyran-4-yl)-(4-fluorobenzyl)-amine], the “NET binding/DAT binding” value with rat NET is given as 3.9.
The same measure, in the same setting: the value for `c1ccc(CN[C@H]2CC[C@@H](C(c3ccccc3)c3ccccc3)OC2)cc1` (relative stereo) [Compound 16k, Cis-(6-benzhydryl-tetrahydropyran-3-yl)-benzyl-amine] was 0.90.
Turning to `COc1ccc(CN[C@@H]2CO[C@H](C(c3ccccc3)c3ccccc3)C[C@H]2O)c(OC)c1` [(−)-29e, (2S,4R,5R)-2-benzhydryl-5-(2,4-dimethoxy-benzylamino)-tetrahydropyran-4-ol], at SERT, the “Blockade of SERT, in words” value was “potent blockers”. In addition, the “Blockade of NET, in words” value on NET is listed as “potent blockers”.
With `O[C@@H]1C[C@@H](C(c2ccccc2)c2ccccc2)OC[C@H]1NCc1ccc(F)cc1` [(−)-29b, (2S,4R,5R)-2-benzhydryl-5-(4-fluoro-benzylamino)-tetrahydro-pyran-4-ol], the “Blockade of NET, in words” value at NET is recorded as “selective blockers for NET”.
On to `c1ccc(C(c2ccccc2)C2CCC(NCc3c[nH]c4ccccc34)CO2)cc1` (stereo not drawn) [Compound 16f, Cis-(6-benzhydryl-tetrahydropyran-3-yl)-(3-indole-methyl)-amine], for which the “NET binding/DAT binding” value in the series with rat NET is 2.3.
Turning to `O[C@@H]1C[C@@H](C(c2ccccc2)c2ccccc2)OC[C@H]1NCc1ccccc1` [(−)-29d, (2S,4R,5R)-2-benzhydryl-5-benzylamino-tetrahydro-pyran-4-ol], the “Blockade of NET, in words” value on NET was “selective blockers for NET”.
The compound `Oc1ccc(CN[C@H]2CC[C@@H](C(c3ccccc3)c3ccccc3)OC2)cc1` (relative stereo) (as salt: oxalate) [Compound 16h, Cis-(6-benzhydryl-tetrahydropyran-3-yl)-(4-hydroxy-benzyl)-amine] came in with a melting point of 136 to 138 °C.
Turning to `N[C@H]1CC[C@@H](C(c2ccccc2)c2ccccc2)OC1` (relative stereo) [Compound 15, Cis-(6-benzhydryl-tetrahydropyran-3-yl)-amine], the “Activity at the DAT, in words” value on rat DAT is given as “little or no activity at the DAT”.
Regarding `Fc1ccc(CN[C@H]2CC[C@@H](C(c3ccccc3)c3ccccc3)OC2)cc1F` (relative stereo) [Compound 16j, Cis-(6-benzhydryl-tetrahydropyran-3-yl)-(3,4-difluoro-benzyl)-amine], the “NET binding/DAT binding” value in the series on rat NET was 1.9.
Regarding `Oc1ccc(CN[C@@H]2CC[C@H](C(c3ccccc3)c3ccccc3)OC2)cc1` [(+)-37a, cis-(3R,6R)-(6-benzhydryl-tetrahydropyran-3-yl)-(4-hydroxy-benzyl)-amine], the “Blockade of NET, in words” value on NET is recorded as “selective blockers for NET”.
